# Reference: patent US9725463B2, “Substituted heterocyclic compounds as CRAC modulators” (LUPIN LIMITED, priority 2013, dated 2017)
# System: IL-2 secretion by Jurkat T cells
# Assay: Inhibition of IL-2 secretion
# Assay type: cell-based
# Details: Homo sapiens; Jurkat T cells stimulated with PHA, 20 to 24 hours, IL-2 by ELISA
# Protocol: The CRAC channel modulatory activity of the compounds were thus evaluated by measuring the secretion of IL-2 by antigen stimulated T-cells in vitro. Alternatively, such activity can also be evaluated by assay methods known to one skilled in the art.
# Inhibition of IL-2 secretion: Jurkat T cells were seeded at a density of 0.5 to 1 million cells per well in RPMI medium. Test compounds from this invention were added to the cells at different concentrations. This was followed by the addition of PHA, a T cell mitogen after 10 minutes. The cells were then incubated for 20 to 24 hours in a CO2 incubator at 37° C. After incubation with the compounds, cells were centrifuged, the supernatant was collected and processed for ELISA to quantitate the amount of IL-2 secreted. A commercial ELISA kit (R&D Systems, Inc. Minneapolis, Minn., USA) was used to estimate the IL-2 concentrations. Amount of IL-2 secreted by cells stimulated with PHA was considered as a 100% maximal signal and the decrease in amount of IL-2 secreted by cells treated with the test compounds was expressed as percent inhibition of the maximal signal. The dose response data was analyzed using 4-parametric sigmoidal dose response (variable slope) curve-fit.
row,Compound,IC50 [nM]
1,"Cc1cc2c(cc1-c1ccc(NCc3c(F)cccc3F)cc1)OCC(=O)N2C [Example 127, 7-(4-((2,6-Difluorobenzyl)amino)phenyl)-4,6-dimethyl-2H-benzo [b][1,4]oxazin-3(4H)-one]",50 to 100
2,"CN1C(=O)COc2cc(C3CC3)c(-c3ccc(NC(=O)c4c(F)cccc4F)cc3)cc21 [Example 131, N-(4-(7-Cyclopropyl-4-methyl-3-oxo-3,4-dihydro-2H-benzo[b][1,4]oxazin-6-yl)phenyl)-2,6-difluorobenzamide]",50 to 100
3,"CCc1cc2c(cc1-c1ccc(C(=O)Nc3c(F)cncc3F)cc1)N(C)C(=O)CO2 [Example 135, N-(3,5-Difluoropyridin-4-yl)-4-(7-ethyl-4-methyl-3-oxo-3,4-dihydro-2H-benzo[b][1,4]oxazin-6-yl)benzamide]",100 to 500
4,"Cc1cc2oc(=O)n(C)c2cc1-c1ccc(C(=O)Nc2c(F)cccc2F)s1 [Example 140, N-(2,6-Difluorophenyl)-5-(3,6-dimethyl-2-oxo-2,3-dihydrobenzo[d]oxazol-5-yl)thiophene-2-carboxamide]",< 25

# Further lines, results first:
row,IC50 [nM],Compound
1,100 to 500,"Cc1cc2c(cc1-c1cnc(NC(=O)c3c(F)cccc3F)cn1)OCC(=O)N2C [Example 126, N-(5-(4,6-Dimethyl-3-oxo-3,4-dihydro-2H-benzo[b][1,4]oxazin-7-yl)pyrazin-2-yl)-2,6-difluorobenzamide]"
2,25 to 50,"CCc1cc2c(cc1-c1ccc(NC(=O)c3c(F)cccc3F)cc1)N(C)C(=O)CO2 [Example 132, N-(4-(7-Ethyl-4-methyl-3-oxo-3,4-dihydro-2H-benzo[b][1,4]oxazin-6-yl)phenyl)-2,6-difluorobenzamide]"
3,100 to 500,"CCc1cc2c(cc1-c1cnc(NC(=O)c3c(F)cccc3F)cn1)N(C)C(=O)CO2 [Example 133, N-(5-(7-Ethyl-4-methyl-3-oxo-3,4-dihydro-2H-benzo[b][1,4]oxazin-6-yl)pyrazin-2-yl)-2,6-difluorobenzamide]"
